Measurements reported in patent US9890176B2, “Mannose derivatives for treating bacterial infections” (Vertex Pharmaceuticals Incorporated, priority 2013, dated 2018).

Test system: bacterial strain LF82 binding to the glycoprotein BSA-(Mannose)3
Experiment: Bacterial Binding Assay (BBA)
Type: cell-based, Escherichia coli
Settings: read-out: Bacterial Binding Assay IC50
Excerpt: The purpose of the Bacterial Binding Assay (BBA) is to determine the inhibition activity of selective FimH antagonists on the bacterial strain LF82 binding to the glycoprotein BSA-(Mannose)3.
Below is a list of the Materials used to run the BBA are described below. • 1. LB broth: Supplier: Gibco, #10855 • 2. D-PBS: Supplier: Wisent, #311-425-CL • 3. LB agar plates • 4. 96-well black plate (high binding): Supplier: Costar, #3925 • 5. TopSeal™-A adhesive sealing films; Supplier PerkinElmer, #6005185 • 6. Carbonate-bicarbonate buffer pH 9.6 tablets, Supplier: Medicago, #09-8922-24 • 7. Water, Supplier: Gibco, #15230-162 • 8. Bovine serum albumin (BSA): Supplier: Sigma, #A-7888 • 9. (Man)-3-BSA (α1-3, α1-6 Mannotriose-BSA, 1 mg), V-Labs, #NGP1336, lot#HGDX37-169-1 • 10. Tween 20: Supplier: Sigma, #P9416 • 11. Bright-Glo Luciferase Assay System: Supplier: Promega, #E2610 • 12. LF82/Luciferase strain: Invasive ability of an Escherichia coli strain isolated from the ileal mucosa of a patient with Crohn's disease. Boudeau J, Glasser A L, Masseret E, Joly B, Darfeuille-Michaud A, Infect Immun. 1999, 67(9), 4499-509
Solutions and buffers used to run the BBA are described below. • 1. 0.04M carbonate-bicarbonate buffer (coating buffer) • 2. […] 1 mg of (Man)-3-BSA in 25 mL of water. • 3. 4000 ng/mL BSA • 4. 40 ng/mL BSA • 5. 1 μg/mL BSA-(Man)3: 150 μL of 40 ng/mL BSA-(Man)3+5.85 mL of 40 ng/mL BSA • 6. 0.5 μg/mL BSA-(Man)3 in 0.02M carbonate-bicarbonate buffer. • 7. 20 ng/mL BSA in 0.02M carbonate-bicarbonate buffer • 8. Blocking buffer (2% BSA/DPBS): 1 g of BSA in 50 mL D-PBS • 9. 2× binding buffer (0.2% BSA/D-PBS): 5 mL of blocking buffer+45 mL D-PBS. • 10. Washing buffer (D-PBS/0.01% Tween 20): 10 μL of Tween 20 in 100 mL D-PBS. • 11. 1× Bright-Glo Luciferase substrate:Dilute 1:1 the Bright-Glo Luciferase Assay System with D-PBS The experimental protocol to run the BBA is described below.
Overnight culture of LF82/Luciferase strain: Into two Falcon 50 mL tubes, add 20 mL of LB+20 μL of 50 mg/mL Kanamycin and inoculate with a loop from glycerol stock of the LF82/Luciferase strain. Incubate overnight at 37° C. with no shaking.
Glycoprotein coating of 96-well plates: Add 100 μL/well of 0.5-2 μg/mL BSA-(Man)3. 20 μg/mL BSA is used as the control background. Seal plate using an adhesive sealing film and incubate overnight at room temperature. Wash the 96-well plate three times with 150 μL/well of D-PBS, add 170 μL/well of blocking solution and incubate 45 min (minimum) at room temperature.
Preparation of bacterial suspension: Mix the two cultures tubes (40 mL) and perform a 1:10 dilution in LB (900 μl LB+100 μl culture. Measure optical density (OD) of the bacterial cultures. OD1 ˜5×10^8 cells/mL. Centrifuge LF82 culture for 20 min at 3500 rpm at room temperature. Re-suspend bacterial pellet in D-PBS and centrifuge again for 20 min at 3500 rpm. Re-suspend bacterial pellet in D-PBS to obtain a bacterial concentration of 2×10^9 bacteria/mL. Dilute 1/10 in D-PBS to obtain a final bacterial concentration of 2×10^8 bacteria/mL (=107 bacteria/50 μL). Perform 1/10 serial dilutions in LB of each bacterial suspension, plate 10 μL of dilutions on LB agar plates (final dilutions of 10^−7) and incubate overnight at 37° C. and count CFUs to determine the actual bacteria density in the assay.
Bacterial binding assay: Add 147 μL 2× binding buffer to compound plate (containing 3 μL of compound). After blocking step is performed (at least 45 min), wash plates three times with 200 μL/well of D-PBS. With a 100 μL multichannel manual pipettor, add 50 μL/well of compound diluted in 2× binding buffer. With a 100 μL multichannel manual pipettor, add 50 μL/well of bacterial suspension. Agitate at slow speed for 1 min and incubate 40-75 min at room temperature. Wash 5 times with 150 μL/well of washing buffer and then once with D-PBS. Add 100 μL/well of 1× Bright-Glo Luciferase substrate. […]

SMILES: CNC(=O)c1ccc(-c2cccc(O[C@H]3O[C@H](CO)[C@@H](O)[C@H](O)[C@]3(C)O)c2Cl)cc1 [Compound 47]
- IC50: 55 ± 29 nM

SMILES: CNC(=O)c1cccc(-c2ccc(O[C@H]3O[C@H]([C@@H](C)O)[C@@H](O)[C@H](O)[C@@H]3O)c(C)c2)c1 [compound 29]
- IC50: > 10000 nM

SMILES: COc1cc(OC)cc(-c2ccc(O[C@H]3O[C@H](CO)[C@@H](O)[C@H](O)[C@]3(C)O)c(C)c2)c1 [Compound 94]
- IC50: 16 ± 6 nM

SMILES: COc1ccc2c(c1)CC[C@]1(O2)O[C@H](CO)[C@@H](O)[C@H](O)[C@@H]1O [compound 32]
- IC50: 333 ± 100 nM

SMILES: COc1ccc(-c2ccc(O[C@H]3O[C@H](CO)[C@@H](O)[C@H](O)[C@]3(C)O)c(C)c2)cc1Cl [Compound 96]
- IC50: 20 ± 9 nM

SMILES: Cc1cc(-c2ccc3cc[nH]c3c2)ccc1O[C@H]1O[C@H](CO)[C@@H](O)[C@H](O)[C@]1(C)O [Compound 89]
- IC50: 455 ± 95 nM

SMILES: COc1ccc(OC)c(-c2ccc(O[C@H]3O[C@H](CO)[C@@H](O)[C@H](O)[C@]3(C)O)c(C)c2)c1 [Compound 95]
- IC50: 24 ± 12 nM

SMILES: Cc1cc(-c2ccc(F)c(C(=O)N3CCCC3)c2)ccc1O[C@H]1O[C@H](CO)[C@@H](O)[C@H](O)[C@]1(C)O [Compound 85]
- IC50: 30 ± 8 nM

SMILES: CNC(=O)c1cccc(-c2ccc(O[C@H]3O[C@H](CO)[C@@H](O)[C@H](O)[C@]3(C)O)c(F)c2)c1 [Example 16, 3-[3-fluoro-4-[(2R,3S,4S,5S,6R)-3,4,5-trihydroxy-6-(hydroxymethyl)-3-methyl-tetrahydropyran-2-yl]oxy-phenyl]-N-methyl-benzamide]
- IC50: 67 ± 18 nM

SMILES: Cc1cc(-c2ccc(-c3ccc(O[C@H]4O[C@H](CO)[C@@H](O)[C@H](O)[C@]4(C)O)c(C)c3)cc2)ccc1O[C@H]1O[C@H](CO)[C@@H](O)[C@H](O)[C@]1(C)O [Example 116, (2R,3S,4S,5S,6R)-6-(hydroxymethyl)-3-methyl-2-[2-methyl-4-[4-[3-methyl-4-[(2R,3S,4S,5S,6R)-3,4,5-trihydroxy-6-(hydroxymethyl)-3-methyl-tetrahydropyran-2-yl]oxy-phenyl]phenyl]phenoxy]tetrahydropyran-3,4,5-triol]
- IC50: 30 ± 13 nM

SMILES: Cc1cc(-c2cccc(-c3ccc(O[C@H]4O[C@H](CO)[C@@H](O)[C@H](O)[C@]4(C)O)c(C)c3)c2)ccc1O[C@H]1O[C@H](CO)[C@@H](O)[C@H](O)[C@]1(C)O [Example 120, (2R,3S,4S,5S,6R)-6-(hydroxymethyl)-3-methyl-2-[2-methyl-4-[3-[3-methyl-4-[(2R,3S,4S,5S,6R)-3,4,5-trihydroxy-6-(hydroxymethyl)-3-methyl-tetrahydropyran-2-yl]oxy-phenyl]phenyl]phenoxy]tetrahydro-pyran-3,4,5-triol]
- IC50: 3 ± 2 nM

SMILES: COc1ccc(C#N)cc1-c1ccc(O[C@H]2O[C@H](CO)[C@@H](O)[C@H](O)[C@]2(C)O)c(C)c1 [Compound 79]
- IC50: 20 ± 5 nM

SMILES: Cc1cc(-c2ccnc(-c3ccc(O[C@H]4O[C@H](CO)[C@@H](O)[C@H](O)[C@]4(C)O)c(C)c3)c2)ccc1O[C@H]1O[C@H](CO)[C@@H](O)[C@H](O)[C@]1(C)O [Example 122, (2R,3S,4S,5S,6R)-6-(hydroxymethyl)-3-methyl-2-[2-methyl-4-[2-[3-methyl-4-[(2R,3S,4S,5S,6R)-3,4,5-trihydroxy-6-(hydroxymethyl)-3-methyl-tetrahydropyran-2-yl]oxy-phenyl]-4-pyridyl]phenoxy]tetrahydropyran-3,4,5-triol]
- IC50: 0.6 ± 0.3 nM

SMILES: CNC(=O)c1cccc(-c2ccc(O[C@H]3O[C@H]([C@H](C)O)[C@@H](O)[C@H](O)[C@@H]3O)c(C)c2)c1 [compound 27]
- IC50: 165 ± 49 nM

SMILES: C[C@@]1(O)[C@@H](Oc2ccc(-c3ccc(O[C@H]4O[C@H](CO)[C@@H](O)[C@H](O)[C@]4(C)O)c(F)c3)cc2F)O[C@H](CO)[C@@H](O)[C@@H]1O [Example 112, (2R,3S,4S,5S,6R)-2-[2-fluoro-4-[3-fluoro-4-[(2R,3S,4S,5S,6R)-3,4,5-trihydroxy-6-(hydroxymethyl)-3-methyl-tetrahydropyran-2-yl]oxy-phenyl]phenoxy]-6-(hydroxymethyl)-3-methyl-tetrahydropyran-3,4,5-triol]
- IC50: 68 ± 11 nM

SMILES: CNC(=O)c1cccc(-c2ccc(O[C@H]3O[C@H](CO)[C@@H](O)[C@H](O)[C@]3(C)O)cc2C)c1 [Compound 42]
- IC50: 375 ± 255 nM

SMILES: CNC(=O)c1cccc(-c2ccc(O[C@H]3O[C@H](CO)[C@@H](O)[C@H](O)[C@]3(C)O)cc2F)c1 [Compound 39]
- IC50: 265 ± 135 nM

SMILES: CNC(=O)c1cccc(-c2ccc(O[C@H]3O[C@H](CO)[C@@H](O)[C@H](O)[C@@]3(O)Cn3cc(CO)nn3)c(C)c2)c1 [Compound 51]
- IC50: 7150 ± 50 nM

SMILES: CNC(=O)c1cccc(-c2ccc(O[C@H]3O[C@H](CO)[C@@H](O)[C@H](O)[C@@]3(O)COCc3ccccc3)c(C)c2)c1 [Compound 23]
- IC50: 115 ± 25 nM

SMILES: OC[C@H]1O[C@@]2(CCc3cc(-c4cncc(-c5ccc6c(c5)CC[C@]5(O6)O[C@H](CO)[C@@H](O)[C@H](O)[C@@H]5O)c4)ccc3O2)[C@@H](O)[C@@H](O)[C@@H]1O [Example 129, (2R,3′S,4′S,5′S,6′R)-6′-(hydroxymethyl)-6-[5-[(2R,3′S,4′S,5′S,6′R)-3′,4′,5′-trihydroxy-6′-(hydroxymethyl)spiro[chromane-2,2′-tetrahydropyran]-6-yl]-3-pyridyl]spiro[chromane-2,2′-tetrahydropyran]-3′,4′,5′-triol]
- IC50: 11 ± 6 nM

SMILES: Cc1ccc(-c2ccc(C)c(O[C@H]3O[C@H](CO)[C@@H](O)[C@H](O)[C@]3(C)O)c2)cc1O[C@H]1O[C@H](CO)[C@@H](O)[C@H](O)[C@]1(C)O [Example 113, (2R,3S,4S,5S,6R)-6-(hydroxymethyl)-3-methyl-2-[2-methyl-5-[4-methyl-3-[(2R,3S,4S,5S,6R)-3,4,5-trihydroxy-6-(hydroxymethyl)-3-methyl-tetrahydropyran-2-yl]oxy-phenyl]phenoxy]tetrahydropyran-3,4,5-triol]
- IC50: 15 ± 11 nM

SMILES: CCc1cc(-c2ccc(O[C@H]3O[C@H](CO)[C@@H](O)[C@H](O)[C@]3(C)O)c(CC)c2)ccc1O[C@H]1O[C@H](CO)[C@@H](O)[C@H](O)[C@]1(C)O [Example 110, (2R,3S,4S,5S,6R)-2-[2-ethyl-4-[3-ethyl-4-[(2R,3S,4S,5S,6R)-3,4,5-trihydroxy-6-(hydroxymethyl)-3-methyl-tetrahydropyran-2-yl]oxy-phenyl]phenoxy]-6-(hydroxymethyl)-3-methyl-tetrahydropyran-3,4,5-triol]
- IC50: 3 ± 1 nM

SMILES: COCCNC(=O)c1cccc(-c2ccc(O[C@H]3O[C@H](CO)[C@@H](O)[C@H](O)[C@]3(C)O)c(Cl)c2)c1 [Compound 53]
- IC50: 24 ± 6 nM
